Patent US7375078B2, “Heterocyclic self-immolative linkers and conjugates” (Genentech, Inc., priority 2004, dated 2008)

Molecular target: T1, cathepsin B (Homo sapiens, UniProt P07858)
T1 construct: purchased CalBiochem
Assay: Cathepsin B cleavage of 7A and 7B
Format: biochemical
Conditions: substrate 100 μM, activated cathepsin B 100 nM, 50 mM sodium acetate buffer pH 5, 37° C., 16 hrs, presence or absence of 1 mM cysteine; HPLC
Description: Model compounds with a cleavable peptide unit and a heterocyclic self-immolative moiety, and conjugates of Formula I can be tested for stability and kinetics of enzymatic hydrolysis by the methods of de Groot, et al (1999) J. Med. Chem. 42(25):5277-5283.
FIG. 2 is a schematic representation of the cleavage mechanism.
A cathepsin B (CalBiochem) stock solution at 28.4 μM was diluted to 1 μM in 50 mM sodium acetate buffer pH 7.5, containing 2 mM DTT. Activation was carried out at 37° C. for 15 minutes.
Substrate compounds 7A and 7B were diluted to 100 μM in 50 mM sodium acetate buffer pH 5. Activated cathepsin B was added to a final concentration of 100 nM and the cleavage reaction was carried out at 37° C. for 16 hrs in the presence or absence of 1 mM cysteine.
Reversed-phase separation of cleavage products was carried out using an Agilent 1100 HPLC system. UV signal was monitored at 214, 254 and 380 nm. A Poroshell 300SB-C18 column (No.660750-902) from Agilent was used. Mobile phases A and B contained 0.05% TFA aqueous solution and CH3CN containing 0.05% TFA, respectively. […] The cleavage product of 4-nitroaniline was monitored by its distinct absorbance at 380 nm in the void volume. […]

SMILES	cleavage reaction (disappearance of substrate, release of 4-nitroaniline)
CC(C)[C@@H](NC(=O)OC(C)(C)C)C(=O)N[C@H](CCCNC(N)=O)C(=O)Nc1nc(C(F)(F)F)c(COC(=O)Nc2ccc([N+](=O)[O-])cc2)s1 [Compound 7A]	complete
CC(C)[C@@H](NC(=O)CCCCCN1C(=O)C=CC1=O)C(=O)N[C@H](CCCNC(N)=O)C(=O)Nc1nc(C(F)(F)F)c(COC(=O)Nc2ccc([N+](=O)[O-])cc2)s1 [Compound 7B]	complete
